Test results: US20230087994A1, “TARGETED BIFUNCTIONAL DEGRADERS” (YALE UNIVERSITY, priority 2019, published 2023)

Legend:
[1] = test system: α-DNP antibody; assay: Depletion of α-DNP antibody from serum in mice (ELISA); format: in vivo; settings: negative control compound; FIG. 95
Description: FIG. 94 illustrates that serum levels of α-DNP antibody decrease more rapidly following repeated treatment with DNP-GN3. Serum antibody levels were measured using an ELISA assay. Each experimental group contained three mice. Statistical differences in experiments involving in vivo depletion of α-DNP antibody were assessed by repeated measures two-way ANOVA with Tukey's tests for post-hoc comparison of simple effects between each of the treatment groups and PBS.
Single doses of DNP-GN3 were also found to be efficacious at mediating α-DNP antibody depletion, albeit less effectively than daily dosing (FIG. 96). […] Therefore, it was concluded that DNP-GN3 is able to mediate the depletion of a monoclonal antibody from serum, and functions across a wide range of target protein concentrations and dosing regimens.
DNP-GN3 was also found to be efficacious in depleting polyclonal α-DNP antibody from serum collected from mice immunized with DNP-keyhole limpet haemocyanin (KLH) (FIG. 97). […] Thus, the small molecule DNP-GN3 is not restricted in function to only monoclonal mouse antibodies, but is also effective at removing polyclonal α-DNP antibodies from circulation in mice.

[2] = test system: α-DNP antibody; assay: as above; format: in vivo; settings: i.p.; FIG. 79A
[3] = test system: HepG2 cells; assay: DNP-AF3-mediated endocytosis of fluorescently labeled α-DNP antibody by HepG2 cells (flow cytometry); format: cell-based, human; settings: 40 nM DNP-AF3, 100 nM antibody; ASF 2.07 μM; AF and GalNAc 1.25 mM; FIG. 105
Description: The intracellular fluorescence of cells that were incubated at 37° C. with both fluorescently labeled α-DNP antibody and DNP-AF3 for a given amount of time was examined. Cells were then washed, removed from the plate with trypsin, and subjected to flow cytometry. Trypsin treatment is expected to cleave ASGPR and surface-bound α-DNP antibody from cells, and therefore the cellular fluorescence observed in these assays is expected to arise only from internalized antibodies.
It was then determined if reagents which inhibit ternary complex formation inhibit endocytosis mediated by DNP-AF3. In order to account for non-specific antibody association with cells, the mean fluorescence intensity of an aliquot of cells which had been treated with α-DNP antibody but not DNP-AF3 was subtracted from each reading. […] In the presence of 2.38 μM (0.1 mg/mL) ASOR, the cell population fluorescence was decreased to 4.66e5 (FIG. 105); at this ASOR concentration, ternary complex formation is decreased by approximately 70%. Because ternary complex is not inhibited completely at this concentration of ASOR, it is expected that productive endocytic events are still taking place.

[4] = test system: HepG2 cells; assay: DNP-GN3-mediated endocytosis of fluorescently labeled α-DNP antibody by adherent HepG2 cells; format: cell-based, human; settings: competitive binders at high concentrations; FIG. 88
[5] = Tolerability of DNP-GN3 and DNP-OH3 in mice (body weight, AST, ALT); format: in vivo; settings: all tested concentrations; FIGS. 93A-93C
Description: FIGS. 93A-93C illustrate that DNP-GN3 and DNP-OH3 are not toxic to mice at all tested concentrations. FIG. 93A: mouse body weight following treatment with DNP-GN3 or DNP-OH3. Statistical differences were analyzed by T test. FIG. 93B: levels of aspartate transaminase (AST) in treated mice. Dashed lines represent the normal range. FIG. 93C: levels of alanine transaminase (ALT) in treated mice. Dashed lines represent the normal range.

[6] = test system: ASGPR on the surface of immortalized human hepatocyte HepG2 cells; assay: DNP-GN3-mediated ternary complex formation: association of fluorescently labeled α-DNP antibody with HepG2 cells in suspension; format: cell-based; settings: competition; FIG. 86B-86C; read-out: IC50, decrease of DNP-GN3-mediated cellular fluorescence
Description: (§1) It was investigated whether DNP-GN3 could mediate the formation of a ternary complex between a fluorescently labeled α-DNP antibody and ASGPR on the surface of immortalized human hepatocyte HepG2 cells in suspension. […] The observed bell-shaped response to DNP-GN3 concentration is consistent with the prozone effect commonly observed in systems wherein a ternary complex is formed.

[7] = test system: ASGPR on the surface of HepG2 cells; assay: DNP-AF3-mediated ternary complex formation: α-DNP antibody association with HepG2 cells (flow cytometry); format: cell-based, human; settings: 40 nM DNP-AF3, 100 nM α-DNP antibody; FIG. 99; read-out: IC50, inhibition of DNP-AF3-mediated ternary complex formation
Description: DNP-AF3 utilizes trivalent display of a higher affinity ASGPR ligand to engage the receptor. First, the effect of DNP-AF3 concentration on α-DNP antibody association with cells was determined (FIG. 98). In these experiments, a constant amount of α-DNP antibody and cells was incubated with various concentrations of DNP-AF3. The mean fluorescence intensity of the cell population was measured using flow cytometry. In order to account for background cellular fluorescence and non-DNP-AF3 mediated antibody association with cells, the mean fluorescence intensity of a sample of cells which had been treated with α-DNP antibody but not DNP-AF3 was subtracted from each data point.
Next, whether increasing concentrations of a competitive binder of the α-DNP antibody inhibits ternary complex formation was investigated. […] However, different preparations of the HepG2 cells and/or compound gave varying mean fluorescence intensity for the cell population between different independent experimental replicates. Therefore, for competition studies, inhibition of ternary complex formation was reported rather than mean fluorescence intensity of the cell population. 100% ternary complex formation is corrected to the fluorescence of a cell population treated with both 40 nM DNP-AF3 and 100 nM α-DNP antibody, while 0% ternary complex formation is corrected to a mixture of cells and α-DNP antibody without DNP-AF3.

[8] = biological target: T1, ASGPR on the surface of immortalized human hepatocyte HepG2 cells (Homo sapiens, UniProt P07306+P07307); assay: DNP-GN3-mediated ternary complex formation: association of fluorescently labeled α-DNP antibody with HepG2 cells in suspension; format: cell-based
T1 sequence (P07306 1-291): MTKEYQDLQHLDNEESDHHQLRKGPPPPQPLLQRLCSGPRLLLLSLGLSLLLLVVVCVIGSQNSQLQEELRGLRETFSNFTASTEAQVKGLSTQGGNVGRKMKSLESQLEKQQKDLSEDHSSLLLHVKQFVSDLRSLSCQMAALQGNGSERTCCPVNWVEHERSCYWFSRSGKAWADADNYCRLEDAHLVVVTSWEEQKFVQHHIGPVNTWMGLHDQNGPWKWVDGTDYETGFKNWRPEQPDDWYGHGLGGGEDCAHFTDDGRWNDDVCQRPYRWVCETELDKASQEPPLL
T1 sequence (P07307 1-311): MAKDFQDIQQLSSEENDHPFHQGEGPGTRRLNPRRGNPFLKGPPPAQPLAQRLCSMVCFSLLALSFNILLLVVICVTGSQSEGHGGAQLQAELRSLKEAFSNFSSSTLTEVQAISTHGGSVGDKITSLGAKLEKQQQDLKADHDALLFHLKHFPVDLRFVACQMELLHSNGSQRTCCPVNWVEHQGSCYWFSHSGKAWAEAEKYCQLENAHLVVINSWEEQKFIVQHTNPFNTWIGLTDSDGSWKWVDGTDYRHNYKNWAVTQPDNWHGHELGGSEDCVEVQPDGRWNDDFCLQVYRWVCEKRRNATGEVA
Description: as §1

| Structure (SMILES) | antibody depletion from serum [1] | degradation of injected anti-DNP IgG antibodies in mouse serum [2] | effect on DNP-AF3-mediated α-DNP antibody endocytosis [3] | effect on DNP-GN3-mediated α-DNP antibody endocytosis [4] | toxicity to mice [5] | IC50 [6] [nM] | IC50 [7] [nM] | IC50 [8] [nM] |
| --- | --- | --- | --- | --- | --- | --- | --- | --- |
| O=C(CCOCC(COCCC(=O)NCCOCCOCCO)(COCCC(=O)NCCOCCOCCO)NC(=O)CNC(=O)COCCOCCOCCNc1ccc([N+](=O)[O-])cc1[N+](=O)[O-])NCCOCCOCCO [DNP-OH3, reference compound] | No accelerated antibody depletion | did not show such effect | decreased to near-background levels | significantly decreased | not toxic | 36 | 40.6 | – |
| CC(=O)N[C@H]1C(O)O[C@H](CO)[C@H](O)[C@@H]1O (stereo partly shown) [GalNAc, N-acetylgalactosamine] | – | – | significantly decreased cellular fluorescence | significantly decreased | – | – | – | 200000 |
